Experimental data reported in US20100167925A1, “Substituted Azolin-2-yl-Amino Compounds” (BASF SE, priority 2006, published 2010).

Columns and labels:
[1] = system: Aphis gossypii; test: Cotton aphid (Aphis gossypii) mortality on dipped cotton plants; type: in vivo; settings: 120 h, cotton plants in cotyledon stage dipped into test solution, aphid mortality determined after 5 days, read-out: mortality in comparison with untreated controls
Experimental: I. Cotton Aphid (Aphis gossypii)
(§1) Cotton plants in the cotyledon stage (variety ‘Delta Pine’) are infested with approximately 100 laboratory-reared aphids by placing infested leaf sections on top of the test plants. The leaf sections are removed after 24 hours. The cotyledons of the intact plants are dipped into gradient solutions of the test compound. Aphid mortality on the treated plants, relative to mortality on check plants, is determined after 5 days.

[2] = system: Myzus persicae; test: Green peach aphid (Myzus persicae) mortality on dipped pepper plants; type: in vivo; settings: 120 h, pepper plants in 2nd leaf-pair stage dipped into test solution, aphid mortality determined after 5 days, read-out: mortality in comparison with untreated controls
Experimental: I.b. Green Peach Aphid (Myzus persicae)
as §1, with “Pepper” for “Cotton”, “2nd leaf-pair” for “cotyledon”, “‘California Wonder’)” for “‘Delta Pine’)”, “40” for “100”, “leaves” for “cotyledons”

melting point | SMILES | mortality at 300 ppm [1] | mortality at 300 ppm [2]
161 to 163 °C | CC1(C)Cc2ccccc2C1N=C1SCCN1C1=NCCS1 (stereo not drawn) | – | –
– | CC1(C)Cc2ccccc2C1NC1=NCCS1 (stereo not drawn) [Example 22, (4,5-Dihydro-thiazol-2-yl)-(2,2-dimethyl-indan-1-yl)-amine] | > 70% | > 70%
